Converted amounts (≈) assume the structure as drawn. Like-named read-outs stand apart in the source and are kept apart here.
Assays:
Hymenolepsis nana = assay: Activity against tapeworms Hymenolepsis nana in mice; assay type: in vivo, Hymenolepsis nana (infected Albimo mice); conditions: Mus musculus, po, 72 h, read-out: Activity: % of infected mice getting 100% clearance
Experimental: The anthelmintic properties of the products of the invention have been determined as follows:
Albimo mice of either sex (18-20 g.weight range) were administered by gavage 0.2 ml of the standard inoculum (containing 1000 viable eggs). 20 days later, the faecal matter was checked for Hymenolipis nana eggs. Mice showing the presence of H nana eggs were taken for experiments. They were classified on the weight basis. 5 animals were taken in each cage.
Compounds of the invention under investigation were suspended in 0.2% tragacanth. Concentrations were adjusted in such a way that 0.2 ml conformed to particular dosage schedule for each compound. They were administered by gavage in fasting condition in the morning on 21st day post infection, once daily for 3 consecutive days. For each set of test compound group, one cage of infected control mice was kept. These received saline for 3 days.
After 3 consecutive days of administration, all mice were kept fasting on the subsequent day (24th day post infection) and sacrificed on the 25th day. Results of surviving mice only have been taken. From each mouse, the whole intestine including caecum was collected in a petri dish with water. It was cut open longitudinally and was examined for adult worms and scolices. Absolute clearance of worms and scolices in individual mouse was taken as a criterion for assessing the results of each group.
The data on some of the compounds studied are represented in Table II

[1] = system: antibiotic resistant Staph aureus; assay: Antimicrobial serial dilution (MIC), A/R S.a; assay type: cell-based; conditions: Staphylococcus aureus, read-out: MIC A/R S.a
S. typhi = assay: Antimicrobial serial dilution (MIC), S.t; assay type: cell-based; conditions: Salmonella enterica
Ps. aeruginosa = assay: Antimicrobial serial dilution (MIC), P.a; assay type: cell-based; conditions: Pseudomonas aeruginosa
Staph. aureus = assay: Antimicrobial serial dilution (MIC), S.a; assay type: cell-based; conditions: Staphylococcus aureus
S.Shigae = assay: microbe, parasite or virus in culture; assay type: cell-based; conditions: Shigella dysenteriae, read-out: MIC S.s
E.coli = assay: Antimicrobial serial dilution (MIC), E.c.; assay type: cell-based; conditions: Escherichia coli
Proteus vulgaris ox 19 = assay: Antimicrobial serial dilution (MIC), Pr.ox; assay type: cell-based; conditions: OX19
microsporum gypseum = assay: Antimicrobial serial dilution (MIC), M.gy; assay type: cell-based; conditions: Nannizzia gypsea
[2] = system: Trichophyton mentagrophytes; assay: Antimicrobial serial dilution (MIC), T.m; assay type: cell-based
Phialophora jeanselmei = assay: Antimicrobial serial dilution (MIC), Ph.je; assay type: cell-based; conditions: Exophiala jeanselmei
Candida albicans = assay: Antimicrobial serial dilution (MIC), C.a; assay type: cell-based
Nocardia asteroides = assay: Antimicrobial serial dilution (MIC), N.a; assay type: cell-based
Aspergillus fumigatus = assay: Antimicrobial serial dilution (MIC), A.f; assay type: cell-based
plant pathogenic fungi = conditions: C.A. Vol. 62, 14569e; cited from earlier work
[3] = 400 mg/kg/day × 3 days, gavage, surviving mice only

| SMILES | MIC [1] [mg/L] | MIC (S. typhi) [mg/L] | MIC (Ps. aeruginosa) [mg/L] | MIC (Staph. aureus) [mg/L] | MIC (S.Shigae) [mg/L] | MIC (E.coli) [mg/L] | MIC (Proteus vulgaris ox 19) [mg/L] | MIC (microsporum gypseum) [mg/L] | MIC [2] [mg/L] | MIC (Phialophora jeanselmei) [mg/L] | MIC (Candida albicans) [mg/L] | MIC (Nocardia asteroides) [mg/L] | MIC (Aspergillus fumigatus) [mg/L] | other results |
| --- | --- | --- | --- | --- | --- | --- | --- | --- | --- | --- | --- | --- | --- | --- |
| CCCCNC(=O)Oc1ccc(C=C(C)[N+](=O)[O-])cc1Cl | – | – | – | – | – | – | – | – | – | – | – | – | – | responders at 400 mg/kg (Hymenolepsis nana; [3]): 100% |
| CC(=Cc1ccc(O)c(Cl)c1)[N+](=O)[O-] [drawing 10] | 3.12 (≈ 14.6 µM) | 50 (≈ 234 µM) | ≥ 50 | 3.12 (≈ 14.6 µM) | 25 (≈ 117 µM) | 12.5 to 25 (≈ 58.5 to 117 µM) | 6.25 (≈ 29.3 µM) | – | – | – | – | – | – | – |
| Cc1ccc(NC(=O)Oc2ccc(C=C[N+](=O)[O-])cc2)cc1 | – | – | – | – | – | – | – | – | – | – | – | – | – | responders at 400 mg/kg (Hymenolepsis nana): 94% |
| O=C(Nc1ccc(Br)cc1)Oc1cccc(C=C[N+](=O)[O-])c1 | – | – | – | – | – | – | – | – | – | – | – | – | – | responders at 400 mg/kg (Hymenolepsis nana): 100% |
| CC(=Cc1ccc(OC(=O)Nc2ccc(C)cc2)cc1)[N+](=O)[O-] [drawing 3] | 6.25 (≈ 20 µM) | 50 (≈ 160 µM) | ≥ 50 | 6.25 (≈ 20 µM) | 12.5 (≈ 40 µM) | 6.25 (≈ 20 µM) | 6.25 (≈ 20 µM) | – | – | – | – | – | – | – |
| CC(=Cc1ccc(OC(=O)Nc2ccccc2)cc1)[N+](=O)[O-] [drawing 17] | – | – | – | – | – | – | – | 3.12 (≈ 10.5 µM) | 3.12 to 6.25 (≈ 10.5 to 21 µM) | 3.12 (≈ 10.5 µM) | 25 (≈ 83.8 µM) | 25 (≈ 83.8 µM) | 6.25 (≈ 21 µM) | – |
| O=[N+]([O-])C=Cc1cc(Cl)ccc1O [drawing 21] | – | – | – | – | – | – | – | 6.25 to 12.5 (≈ 31.3 to 62.6 µM) | 6.25 (≈ 31.3 µM) | 12.5 (≈ 62.6 µM) | 25.5 (≈ 128 µM) | 25 (≈ 125 µM) | 12.5 (≈ 62.6 µM) | – |
| CCCCNC(=O)Oc1ccc(C=C(C)[N+](=O)[O-])cc1 [drawing 5] | 6.25 (≈ 22.5 µM) | 50 (≈ 180 µM) | ≥ 50 | 6.25 (≈ 22.5 µM) | 12.5 (≈ 44.9 µM) | 6.25 to 12.5 (≈ 22.5 to 44.9 µM) | 6.25 (≈ 22.5 µM) | – | – | – | – | – | – | – |
| CC(=Cc1ccc(OC(=O)Nc2ccc(C)cc2)cc1)[N+](=O)[O-] [drawing 13] | – | – | – | – | – | – | – | 1.56 to 3.12 (≈ 4.99 to 10 µM) | 3.12 (≈ 10 µM) | 6.25 (≈ 20 µM) | 12.5 (≈ 40 µM) | 25.5 (≈ 81.6 µM) | 12.5 (≈ 40 µM) | – |
| CC(=Cc1ccc(OC(=O)Nc2ccc(Br)cc2)cc1)[N+](=O)[O-] [drawing 14] | – | – | – | – | – | – | – | 1.56 (≈ 4.14 µM) | 1.56 (≈ 4.14 µM) | 1.56 (≈ 4.14 µM) | 22.5 to 25 (≈ 59.7 to 66.3 µM) | 50 (≈ 133 µM) | 12.5 (≈ 33.1 µM) | – |
| CCCCNC(=O)Oc1ccc(C=C(C)[N+](=O)[O-])cc1 [drawing 15] | – | – | – | – | – | – | – | 0.39 to 0.78 (≈ 1.4 to 2.8 µM) | 0.78 (≈ 2.8 µM) | 0.78 (≈ 2.8 µM) | 12.5 to 25 (≈ 44.9 to 89.8 µM) | 50 (≈ 180 µM) | 6.25 (≈ 22.5 µM) | – |
| CC(=Cc1ccc(OC(=O)Nc2ccccc2)cc1)[N+](=O)[O-] [drawing 7] | 3.12 to 6.25 (≈ 10.5 to 21 µM) | 50 (≈ 168 µM) | ≥ 50 | 6.25 (≈ 21 µM) | 6.25 (≈ 21 µM) | 6.25 (≈ 21 µM) | 12.5 (≈ 41.9 µM) | – | – | – | – | – | – | – |
| CC(=Cc1cccc(OC(=O)Nc2ccccc2)c1)[N+](=O)[O-] | – | – | – | – | – | – | – | – | – | – | – | – | – | responders at 400 mg/kg (Hymenolepsis nana; [3]): 100% |
| CC(=Cc1ccc(Oc2ncc([N+](=O)[O-])s2)cc1)[N+](=O)[O-] [drawing 9] | 1.56 (≈ 5.08 µM) | 50 (≈ 163 µM) | ≥ 50 | 1.56 (≈ 5.08 µM) | 3.12 (≈ 10.2 µM) | 3.12 (≈ 10.2 µM) | 1.56 to 3.12 (≈ 5.08 to 10.2 µM) | – | – | – | – | – | – | – |
| O=C(Nc1ccccc1)Oc1ccc(C=C[N+](=O)[O-])cc1 | – | – | – | – | – | – | – | – | – | – | – | – | – | responders at 350 mg/kg (Hymenolepsis nana): 90% |
| CC(=Cc1ccc(OC(=O)Nc2ccc(Br)cc2)cc1)[N+](=O)[O-] [drawing 4] | 12.5 (≈ 33.1 µM) | ≥ 50 | ≥ 50 | 6.25 (≈ 16.6 µM) | 6.25 to 12.5 (≈ 16.6 to 33.1 µM) | 6.25 (≈ 16.6 µM) | 6.25 (≈ 16.6 µM) | – | – | – | – | – | – | – |
| CC(=Cc1ccc(OC(=O)Nc2ccc(Br)cc2)c(Cl)c1)[N+](=O)[O-] [drawing 22] | – | – | – | – | – | – | – | 1.56 (≈ 3.79 µM) | 1.56 (≈ 3.79 µM) | 3.12 (≈ 7.59 µM) | 25 (≈ 60.7 µM) | 50 (≈ 121 µM) | 6.25 (≈ 15.2 µM) | – |
| CC(=Cc1ccc(OC(=O)Nc2ccccc2)cc1)[N+](=O)[O-] [drawing 25] | – | – | – | – | – | – | – | – | – | – | – | – | – | responders at 400 mg/kg (Hymenolepsis nana; [3]): 100% |
| CC(=Cc1ccc(OC(=O)NC2CCCCC2)cc1)[N+](=O)[O-] [drawing 16] | – | – | – | – | – | – | – | 6.25 (≈ 20.5 µM) | 0.78 (≈ 2.56 µM) | 6.25 (≈ 20.5 µM) | 25 (≈ 82.1 µM) | 50 (≈ 164 µM) | 6.25 to 12.5 (≈ 20.5 to 41.1 µM) | – |
| CC(=Cc1ccc(O)c(Cl)c1)[N+](=O)[O-] [drawing 20] | – | – | – | – | – | – | – | 1.56 (≈ 7.3 µM) | 1.56 (≈ 7.3 µM) | 3.12 (≈ 14.6 µM) | 12.5 (≈ 58.5 µM) | 50 (≈ 234 µM) | 6.25 (≈ 29.3 µM) | – |
| CC(=Cc1ccc(Oc2ncc([N+](=O)[O-])s2)cc1)[N+](=O)[O-] [drawing 19] | – | – | – | – | – | – | – | 0.39 to 0.78 (≈ 1.27 to 2.54 µM) | 0.19 (≈ 0.618 µM) | 0.39 (≈ 1.27 µM) | 3.12 (≈ 10.2 µM) | 12.5 (≈ 40.7 µM) | 1.56 (≈ 5.08 µM) | – |
| CC(=Cc1ccc(OC(=O)Nc2ccc(Br)cc2)c(Cl)c1)[N+](=O)[O-] [drawing 12] | 6.25 (≈ 15.2 µM) | > 50 | ≥ 50 | 6.25 (≈ 15.2 µM) | 25 (≈ 60.7 µM) | 50 (≈ 121 µM) | 6.25 (≈ 15.2 µM) | – | – | – | – | – | – | – |
| CC(=Cc1cccc(OC(=O)Nc2ccc(C)cc2)c1)[N+](=O)[O-] | – | – | – | – | – | – | – | – | – | – | – | – | – | responders at 200 mg/kg (Hymenolepsis nana; 200 mg/kg/day × 3 days, gavage, surviving mice only): 100% |
| O=[N+]([O-])C=Cc1cc(Cl)ccc1O [drawing 11] | 3.12 (≈ 15.7 µM) | 50 (≈ 251 µM) | ≥ 50 | 3.12 (≈ 15.7 µM) | 50 (≈ 251 µM) | 50 (≈ 251 µM) | 25 (≈ 125 µM) | – | – | – | – | – | – | – |
| CC(=Cc1ccc(OC(=O)Nc2ccccc2)c(Cl)c1)[N+](=O)[O-] | – | – | – | – | – | – | – | – | – | – | – | – | – | responders at 400 mg/kg (Hymenolepsis nana; [3]): 100% |
| O=[N+]([O-])C=Cc1ccc(O)c([N+](=O)[O-])c1 [3-nitro-4-hydroxy-β-nitrostyrene] | – | – | – | – | – | – | – | – | – | – | – | – | – | antifungal properties against plant pathogenic fungi (plant pathogenic fungi): antifungal properties against plant pathogenic fungi |
| CC(=Cc1ccc(OC(=O)NC2CCCCC2)cc1)[N+](=O)[O-] [drawing 6] | 3.12 (≈ 10.3 µM) | 50 (≈ 164 µM) | ≥ 50 | 3.12 (≈ 10.3 µM) | 12.5 (≈ 41.1 µM) | 6.12 to 12.5 (≈ 20.1 to 41.1 µM) | 6.25 to 12.5 (≈ 20.5 to 41.1 µM) | – | – | – | – | – | – | – |
| CC(=Cc1cccc(O)c1)[N+](=O)[O-] [drawing 8] | 3.12 (≈ 17.4 µM) | 50 (≈ 279 µM) | 50 (≈ 279 µM) | 3.12 (≈ 17.4 µM) | 3.12 (≈ 17.4 µM) | 3.12 (≈ 17.4 µM) | 3.12 (≈ 17.4 µM) | – | – | – | – | – | – | – |
| CC(=Cc1cccc(O)c1)[N+](=O)[O-] [drawing 18] | – | – | – | – | – | – | – | 1.56 (≈ 8.71 µM) | 1.56 (≈ 8.71 µM) | 3.12 (≈ 17.4 µM) | 12.5 (≈ 69.8 µM) | 25 (≈ 140 µM) | 6.25 (≈ 34.9 µM) | – |
| CC(=Cc1ccc(OC(=O)Nc2ccc(C)cc2)c(Cl)c1)[N+](=O)[O-] | – | – | – | – | – | – | – | – | – | – | – | – | – | responders at 400 mg/kg (Hymenolepsis nana; [3]): 100% |
